Test results as given in US7645882B2, “Inhibitor of protein modification products formation” (priority 2003, dated 2010).

Legend:
[1] = tested on: middle cerebral artery ischemia-reperfusion model; assay: Cerebroprotective action in middle cerebral artery ischemia-reperfusion model; assay type: in vivo, rat; details: for rotor rod test, ratio to before occlusion (%), Ave: reperfusion vs before occlusion
Protocol: CD(SD)IGS male rats (Japan Charles river Kabushiki kaisha, Hino farm, room No. 22, specific product) (8 rats per one group) having body weight 270 to 350 g were anesthetized by 2% isoflurane (mixed bas comprising of 70% N2O (laughter gas) and 30% O2) to immobilize, and then the rats were put on warming plate to keep the rectal and brain temperature 37 to 38° C. After that, to observe the stability in the examination, cannula which was made by polyethylene (PE-50, Becton Dickinson) was inserted and left in caudal artery of said animal, and this made blood drawing and blood pressure determining to monitor the biochemical parameter such as blood sugar level, hematocrit, CO2 concentration, oxygen partial pressure, pH, blood pressure and etc. In addition, cerebral blood flow in cortex was determined by laser doppler fluorometry (Neuroscience.inc: OMEGA FLOW (FLO-C1)), putting the detection site directly on cranium on the point left 4 mm from bregma. Left neck of such animal was incised, and from internal and external carotid fork of common carotid artery to upstream of internal carotid, nylon surgical thread (length 16 mm, diameter 0.2 to 0.3 mm, with silicon coating on its tip 3 mm) was passed and left, middle cerebral artery was obstructed for 2 hours. After that, the thread was removed to release the middle cerebral artery, and blood was reperfused for 21 hours. To each animals, 3.0 mg/kg of edaravone (control) and 5.58 mg/kg of TM-2002 were respectively administered twice by cannula which is left in caudal artery 5 minutes and 5 hours after middle cerebral artery occlusion. After said operation, the brain was removed from said animal, and after preparing 7 brain slices with 2 mm thickness, to TTC stain (0.8 g of 2,3,5-triphenyltetrazolium chloride (Sigma) dissolved in 40 ml of saline) were soaked at 37° C. for 15 minutes to stain, the area of infarction and fixed by 10% neutral formalin liquid to prepare specimen. Such specimens were created the image by CCD camera respectively, and analysed according to method of Swanson et al. (J Cereb Blood Flow Metab 10:290-293; 1994). […] Furthermore, function recovering was estimated before and after the operation by rotor rod test that estimates how much they can walk on rotating rotor.

pentosidine = assay: Pentosidine production inhibiting effect with BSA and arabinose; assay type: biochemical; details: BSA and arabinose instead of plasma
Protocol: Fresh heparinized plasma samples were obtained after informed consent from hemodialysis patients prior to the dialysis session, and filtrated and sterilized. To the plasma (450 μL), there was added the solution of TM-2002 in dimethylsurphoxide (50 μL) (final concentration: 0.8, 2.0, 5.0 mM) incubated at 37° C. for one week. Then, the amount of pentosidine was measured.
Measurement of the amount of pentosidine was made as follows: to each incubated sample (50 μL) was added an equal volume of 10% trichloroacetic acid, followed by centrifugation at 5000 g for 5 minutes; after removal of the supernatant, the pellet was washed by 5% trichloroacetic acid (300 μL); the pellet was dried under reduced pressure and then subjected to hydrolysis in 6N HCl solution (100 μL) at 110° C. under nitrogen atmosphere for 16 hours; to the hydrolysate, 5N NaOH (100 μL) and 0.5 M phosphate buffer (pH 7.4) (200 μL) were added, followed by filtration through a porefilter with a pore size of 0.5 μm and dilution with PBS. The concentration of free pentosidine was determined by reversed-phase HPLC using a fluorescence detector (Miyata, T. et al.: Proc. Natl. Acad. Sci. USA, Vol. 93, p. 2353-2358, 1996). The effluent was monitored at 335/385 nm of excitation/emission wavelength. Synthetic pentosidine was used as the standard. The detection limit of pentosidine was 0.1 pmol/mg protein.
The plasma from patients was substituted to BSA and arabinose, and the pentosidine production inhibiting effect of another compounds (I) or (II) was measured in the same manner as [Test Examination 1]. Therein, “-” means that the examination was not carried out.

For `CC1=NN(c2ccccc2)C(=O)C1` [Edaravone, 3-methyl-1-phenyl-2-pyrazolin-5-one, reference compound], the cerebral infarction nest ([1]; 2 hours occlusion, 21 hours reperfusion, edaravone 3.0 mg/kg, TM-2002 5.58 mg/kg, twice (5 minutes and 5 hours after occlusion), vs excipient) was “significantly reduced”, the “Nervous condition estimation test, Ave (grading system of Bederson et al.)” value (shortened to “Nervous condition estimation test, Ave”) ([1]; after occlusion 10 min) was 2.8 and the “Nervous condition estimation test, Ave” value ([1]; after occlusion 2 hrs) was 2.7. For the same molecule, the “Nervous condition estimation test, Ave” value ([1]; after reperfusion 10 min) was 2.2, the “Nervous condition estimation test, Ave” value ([1]; after reperfusion 3 hrs) was 2.1 and the “Nervous condition estimation test, Ave” value ([1]; after reperfusion 4 hrs) was 2.0. The “Nervous condition estimation test, Ave” value ([1]; after reperfusion 22 hrs) was 1.5, the “rotor rod test, Ave (reading value of count from rotor rod machine)” value (shortened to “rotor rod test, Ave”) ([1]; before occlusion) was 197.0 and the “improvement for nervous condition and recovering the function” value ([1]; compared to excipient single administration) was “remarkably shown”. The “rotor rod test, Ave” value ([1]; reperfusion) was 153.1 and the “rotor rod test, ratio to before occlusion (%), Ave” value [1] was 160.4%.

With `Cc1ncc2c(c1O)C(c1c(C)nn(-c3ccccc3)c1O)OC2` (stereo not drawn) [TM-3001, 1-(5-hydroxy-3-methyl-1-phenyl-1H-pyrazol-4-yl)-6-methyl-1,3-dihydro-furo[3,4-c]pyridin-7-ol] the “Nervous condition estimation test, Ave” value ([1]; after occlusion 10 min) was 2.8, the “Nervous condition estimation test, Ave” value ([1]; after occlusion 2 hrs) was 2.6 and the “Nervous condition estimation test, Ave” value ([1]; after reperfusion 10 min) was 1.5. The “Nervous condition estimation test, Ave” value ([1]; after reperfusion 3 hrs) was 1.3, the “Nervous condition estimation test, Ave” value ([1]; after reperfusion 4 hrs) was 2.0 and the “Nervous condition estimation test, Ave” value ([1]; after reperfusion 22 hrs) was 2.0. For the same molecule, the “rotor rod test, Ave” value ([1]; before occlusion) was 183.4, the “rotor rod test, Ave” value ([1]; reperfusion) was 160.6 and the “rotor rod test, ratio to before occlusion (%), Ave” value [1] was 78.1%.

For `CC1=NN(c2ccc(S(N)(=O)=O)cc2)C(=O)C1=Cc1ccc(O)cc1` [compound 49, 4-[4-(4-hydroxy-benzylidene)-3-methyl-5-oxo-4,5-dihydro-pyrazol-1-yl]-benzenesulfonamide], the “Pentosidine production rate in 5 mM of medicament (%)” value (“Pentosidine production rate … (%)” below) (pentosidine) was 7.09%.

For `CCOC(=O)c1ccc(N2N=C(C(F)(F)F)/C(=C/c3cccs3)C2=O)cc1` [compound 50, 4-(5-oxo-4-thiophene-2-yl-methylene-3-trifluoromethyl-4,5-dihydro-pyrazol-1-yl)-benzoic acid-ethyl ester], the “Pentosidine production rate … (%)” value (pentosidine) was 63.17%.

In the case of `CN(C)c1ccc(/C=C2\C(=O)N(c3ccc(S(N)(=O)=O)cc3)N=C2C(F)(F)F)cc1` [compound 51, 4-[4-(4-dimethylamino-benzylidene)-5-oxo-3-trifluoromethyl-4,5-dihydro-pyrazole-1-yl]-benzenesulfonamide], the “Pentosidine production rate … (%)” value (pentosidine) is reported as 41.68%.

With `O=C1/C(=C\c2ccc(O)cc2)C(C(F)(F)F)=NN1c1ccccc1` [compound 53, 4-(4-hydroxy-benzylidene)-2-phenyl-5-trifluoromethyl-2,4-dihydro-pyrazol-3-one] the “Pentosidine production rate … (%)” value (pentosidine) was 66.76%.

With `CC1=NN(c2ccc(C)c(C)c2)C(=O)/C1=C\c1ccc(O)cc1O` [compound 54, 4-(2,4-dihydroxy-benzylidene)-2-(3,4-dimethyl-phenyl)-5-methyl-2,4-dihydro-pyrazol-3-one] the “Pentosidine production rate … (%)” value (pentosidine) was 73.48%.

`COc1ccc(/C=C2/C(=O)N(c3ccccc3)N=C2C)c(OC)c1O` [compound 59, 4-(3-hydroxy-2,4-dimethoxy-benzylidene)-5-methyl-2-phenyl-2,4-dihydro-pyrazol-3-one] was tested, and the “Pentosidine production rate … (%)” value (pentosidine) was 5.3%.

With `COc1cc(/C=C2/C(=O)N(c3ccc(C(=O)OC(C)C)cc3)NC2C)ccc1O` (stereo not drawn) [compound 60, 4-[4-(4-hydroxy-3-methoxy-benzylidene)-3-methyl-5-oxo-pyrazolidin-1-yl]-benzoic acid-isopropyl ester] the “Pentosidine production rate … (%)” value (pentosidine) was 9.02%.

With `COc1cc(/C=C2/C(=O)N(c3ccc(Cl)c(C(=O)O)c3)N=C2C)c(Cl)cc1O` [compound 61, 2-chloro-5-[4-(2-chloro-4-hydroxy-5-methoxy-benzylidene)-3-methyl-5-oxo-4,5-dihydro-pyrazol-1-yl]-benzoic acid] the “Pentosidine production rate … (%)” value (pentosidine) was 46.25%.

`CC1=NN(c2ccccc2)C(=O)/C1=C/N(C)C` [compound 65, 4-dimethylaminomethylene-5-methyl-2-phenyl-2,4-dihydro-pyrazol-3-one] was tested, and the “Pentosidine production rate … (%)” value (pentosidine) was 62.43%.

In the case of `CC1=NN(c2ccccc2)C(=O)/C1=C/c1c(C)nn(-c2ccccc2)c1O` [compound 66, 4-(5-hydroxy-3-methyl-1-phenyl-1H-pyrazol-4-yl-methylene)-5-methyl-2-phenyl-2,4-dihydro-pyrazol-3-one], the “Pentosidine production rate … (%)” value (pentosidine) is reported as 15.17%.

In the case of `CC1=NN(c2ccccc2)C(=O)/C1=C/c1ccc(Cl)cc1` [compound 67, 4-(4-chloro-benzylidene)-5-methyl-2-phenyl-2,4-dihydro-pyrazol-3-one], the “Pentosidine production rate … (%)” value (pentosidine) is reported as 9.09%.

For `CC1=NN(c2ccccc2)C(=O)/C1=C/c1ccc(O)cc1` [compound 70, 4-(4-hydroxy-benzylidene)-5-methyl-2-phenyl-2,4-dihydro-pyrazol-3-one], the “Pentosidine production rate … (%)” value (pentosidine) was 0.04%.

In the case of `CC1=NN(c2cccc(Cl)c2)C(=O)/C1=C/c1ccc(O)cc1` [compound 71, 2-(3-chloro-phenyl)-4-(4-hydroxy-benzylidene)-5-methyl-2,4-dihydropyrazol-3-one], the “Pentosidine production rate … (%)” value (pentosidine) is reported as 4.63%.

For `CC1=NN(c2ccccc2)C(=O)/C1=C/c1ccc(OCc2ccccc2)cc1` [compound 72, 4-(4-benzyloxy-benzylidene)-5-methyl-2-phenyl-2,4-dihydropyrazol-3-one], the “Pentosidine production rate … (%)” value (pentosidine) was 7.63%.

With `CC1=NN(c2cccc(Cl)c2)C(=O)/C1=N/O` [compound 73, 2-(3-chloro-phenyl)-5-methyl-2H-pyrazol-3,4-dione 4-oxym] the “Pentosidine production rate … (%)” value (pentosidine) was 66.42%.

In the case of `CCOC(=O)C1=NN(c2ccccc2)/C(=C2\C(=O)N(c3ccccc3)N=C2c2ccccc2)S1` [compound 74, 5-(5-oxo-1,3-diphenyl-1,5-dihydro-pyrazol-4-ylidene)-4-phenyl-4,5-dihydro-[1,3,4]thiazole-2-carboxilic acid-ethyl este], the “Pentosidine production rate … (%)” value (pentosidine) is reported as 87.24%.
